These results are taken from the supplement of paper PMC9103864.

Assay [1] relates to BMSC (primary human bone marrow mesenchymal stromal cells). Nature of the assay: drug sensitivity score (DSS); higher = more sensitive.
The test system is the same in assay [2]. Nature of the assay: absolute EC50 for viability; higher = less sensitive.

Structures are written as SMILES.

The compound `C[C@H]1C[C@@H]2[C@H]([C@@H](O)C[C@@]3(C)[C@H]2CC[C@]3(O)C(=O)CO)[C@@]2(C)C=CC(=O)C=C12` [Methylprednisolone] returned a drug sensitivity score in assay [1] of 0. Besides, in assay [2], the “absolute EC50 for viability” value was above 10 µM.

In the case of `CO[C@@H]1[C@H](N(C)C(=O)c2ccccc2)C[C@H]2O[C@]1(C)n1c3ccccc3c3c4c(c5c6ccccc6n2c5c31)C(=O)NC4` [Midostaurin], the drug sensitivity score in assay [1] is 7.5. Besides, the “absolute EC50 for viability” value in assay [2] is 1.65 µM.

Consider `CNC(=O)c1nn(C)c2c1C(C)(C)Cc1cnc(Nc3ccc(N4CCN(C)CC4)cc3)nc1-2` [Milciclib], for which the drug sensitivity score in assay [1] stood at 10.1. The “absolute EC50 for viability” value in assay [2] is above 10 µM.

For `CCCCCCCCCCCCCCCCOP(=O)([O-])OCC[N+](C)(C)C` [Miltefosine], the drug sensitivity score in assay [1] is 2.7. For the same compound, the “absolute EC50 for viability” value in assay [2] worked out at 78.2 µM.

As for `O=C(NOC[C@H](O)CO)c1ccc(F)c(F)c1Nc1ccc(I)cc1F` [Mirdametinib], the drug sensitivity score in assay [1] is 2.1. The “absolute EC50 for viability” value in assay [2] was above 1 µM.

Turning to `CO[C@@]12[C@H](COC(N)=O)C3=C(C(=O)C(C)=C(N)C3=O)N1C[C@@H]1N[C@@H]12` [Mitomycin], the drug sensitivity score in assay [1] is 0. In assay [2], the “absolute EC50 for viability” value is above 10 µM.

Regarding `Clc1ccc(C(c2ccccc2Cl)C(Cl)Cl)cc1` (stereo not given) [Mitotane], the drug sensitivity score in assay [1] was 0. Further, the “absolute EC50 for viability” value in assay [2] was above 10 µM.

`O=C1c2c(O)ccc(O)c2C(=O)c2c(NCCNCCO)ccc(NCCNCCO)c21` [Mitoxantrone] gave a drug sensitivity score in assay [1] of 8. Moreover, the “absolute EC50 for viability” value in assay [2] came out at 0.185 µM.

In the case of `CCS(=O)(=O)Nc1ccc(Oc2ccc(F)cc2F)c(-c2cn(C)c(=O)c3[nH]ccc23)c1` [Mivebresib], the drug sensitivity score in assay [1] worked out at 13. Further, the “absolute EC50 for viability” value in assay [2] worked out at 2.71 µM.

For `Nc1ccccc1NC(=O)c1ccc(CNc2nccc(-c3cccnc3)n2)cc1` [Mocetinostat], in assay [1], the drug sensitivity score was 4.7. Further, the “absolute EC50 for viability” value in assay [2] is above 10 µM.

Turning to `CCNC(=O)C[C@@H]1N=C(c2ccc(Cl)cc2)c2cc(OC)ccc2-n2c(C)nnc21` [Molibresib], the drug sensitivity score in assay [1] was determined as 3.3. For the same compound, the “absolute EC50 for viability” value in assay [2] was above 10 µM.

`N#CCNC(=O)c1ccc(-c2ccnc(Nc3ccc(N4CCOCC4)cc3)n2)cc1` [Momelotinib] showed a drug sensitivity score in assay [1] of 5.1. In assay [2], the “absolute EC50 for viability” value was above 10 µM.

As for `CC1(C)CNc2cc(NC(=O)c3cccnc3NCc3ccncc3)ccc21` [Motesanib], the drug sensitivity score in assay [1] was 0. Further, in assay [2], the “absolute EC50 for viability” value is above 10 µM.

Turning to `CCCN(CCC)C(=O)C1=Cc2ccc(-c3ccc(C(=O)N4CCCC4)cc3)cc2N=C(N)C1` [Motolimod], the drug sensitivity score in assay [1] came to 0. Besides, in assay [2], the “absolute EC50 for viability” value is 9.93 µM.

As for `FC(F)(F)c1ccc(/C=C/c2nc(COc3ccc(CCCCn4ccnn4)cc3)co2)cc1` [Mubritinib], in assay [1], the drug sensitivity score worked out at 0.4. Further, the “absolute EC50 for viability” value in assay [2] is above 1 µM.

On to `Cc1cc(OCc2nnc(SC3CCCC3)n2-c2cccnc2)ccc1-c1ccc(S(C)(=O)=O)cc1` [NMS-873], for which the drug sensitivity score in assay [1] was 4.1. Moreover, the “absolute EC50 for viability” value in assay [2] is 5.4 µM.

Regarding `Nc1ncnc2c1c(-c1cccc(OCc3ccccc3)c1)cn2C1CC(CN2CCC2)C1` (stereo not given) [NVP-AEW541], the drug sensitivity score in assay [1] stood at 4.5. Also, in assay [2], the “absolute EC50 for viability” value worked out at 6.04 µM.

As to `COc1ccc(-c2ccc3ncc4c(c3c2)n(-c2ccc(N3CCNCC3)c(C(F)(F)F)c2)c(=O)n4C)cn1` [NVP-BGT226], the drug sensitivity score in assay [1] stood at 17.5. In addition, in assay [2], the “absolute EC50 for viability” value came out at 0.0263 µM.

`COc1cc2c(cc1OC(C)C)[C@H](c1ccc(Cl)cc1)N(c1ccc(N(C)C[C@H]3CC[C@H](N4CCN(C)C(=O)C4)CC3)cc1)C(=O)C2` [NVP-CGM097]: the drug sensitivity score in assay [1] stood at 9.2. Besides, the “absolute EC50 for viability” value in assay [2] amounted to 4.61 µM.

As to `CN[C@@H](C)C(=O)N[C@H](C(=O)N1CCC[C@H]1c1nc(C(=O)c2ccc(F)cc2)cs1)C1CCCCC1` [NVP-LCL161], the drug sensitivity score in assay [1] worked out at 0. Further, the “absolute EC50 for viability” value in assay [2] is above 25 µM.

Compound `Cc1cc(-c2ncc(CC(=O)Nc3ccc(-c4cnccn4)cn3)cc2C)ccn1` [NVP-LGK974] showed a drug sensitivity score in assay [1] of 0.4. In addition, the “absolute EC50 for viability” value in assay [2] was above 10 µM.

`CC1(N)CCN(c2cnc(-c3cccc(Cl)c3Cl)c(N)n2)CC1` [NVP-SHP099]: in assay [1], the drug sensitivity score came out at 0. Also, the “absolute EC50 for viability” value in assay [2] is above 10 µM.

In turn, `CC(=O)c1cc2c(o1)C(=O)c1ccccc1C2=O` [Napabucasin] yielded a drug sensitivity score in assay [1] of 17.6. Also, the “absolute EC50 for viability” value in assay [2] was 0.64 µM.

On to `CC1(C)CCC(c2ccc(Cl)cc2)=C(CN2CCN(c3ccc(C(=O)NS(=O)(=O)c4ccc(N[C@H](CCN5CCOCC5)CSc5ccccc5)c(S(=O)(=O)C(F)(F)F)c4)cc3)CC2)C1` [Navitoclax], for which the drug sensitivity score in assay [1] is 0. For the same compound, the “absolute EC50 for viability” value in assay [2] is above 10 µM.

Compound `CN1C(=O)N[C@H](Cc2c[nH]c3c(Cl)cccc23)C1=O` [Necrostatin 2] yielded a drug sensitivity score in assay [1] of 0. In addition, in assay [2], the “absolute EC50 for viability” value was above 10 µM.

Compound `O=c1ncn2nc(Sc3ccc(F)cc3F)ccc2c1-c1c(Cl)cccc1Cl` [Neflamapimod] registered a drug sensitivity score in assay [1] of 0.5. In addition, the “absolute EC50 for viability” value in assay [2] is above 10 µM.

The compound `COc1nc(N)nc2c1ncn2[C@@H]1O[C@H](CO)[C@@H](O)[C@@H]1O` [Nelarabine] registered a drug sensitivity score in assay [1] of 0. For the same compound, the “absolute EC50 for viability” value in assay [2] is above 10 µM.

Turning to `CCOc1cc2ncc(C#N)c(Nc3ccc(OCc4ccccn4)c(Cl)c3)c2cc1NC(=O)/C=C/CN(C)C` [Neratinib], in assay [1], the drug sensitivity score came out at 2.3. The “absolute EC50 for viability” value in assay [2] was above 1 µM.

Take `Cc1cn(-c2cc(NC(=O)c3ccc(C)c(Nc4nccc(-c5cccnc5)n4)c3)cc(C(F)(F)F)c2)cn1` [Nilotinib]: in assay [1], the drug sensitivity score was 0. In assay [2], the “absolute EC50 for viability” value is above 10 µM.

For the compound `CC1(C)NC(=O)N(c2ccc([N+](=O)[O-])c(C(F)(F)F)c2)C1=O` [Nilutamide], the drug sensitivity score in assay [1] turned out to be 0. The “absolute EC50 for viability” value in assay [2] was above 10 µM.

On to `COC(=O)c1ccc2c(C(=Nc3ccc(N(C)C(=O)CN4CCN(C)CC4)cc3)c3ccccc3)c(O)[nH]c2c1` [Nintedanib], for which the drug sensitivity score in assay [1] turned out to be 9.7. The “absolute EC50 for viability” value in assay [2] came to 2.56 µM.

With `NC(=O)c1cccc2cn(-c3ccc([C@@H]4CCCNC4)cc3)nc12` [Niraparib], in assay [1], the drug sensitivity score amounted to 0.8. The “absolute EC50 for viability” value in assay [2] is above 10 µM.

On to `CC(O)c1cc(C(=O)N[C@@H](C)Cn2ccc(-c3ccc(C#N)c(Cl)c3)n2)n[nH]1` (stereo not given in full) [ODM-201], for which the drug sensitivity score in assay [1] is 0. Besides, the “absolute EC50 for viability” value in assay [2] was above 2.5 µM.

In assay [1], `CC(=O)c1cnc2ccc(-c3cc(Cl)c(O)c(Cl)c3)nc2c1N[C@H]1CC[C@H](CN(C)C)CC1` [OTS167] had a drug sensitivity score of 2.9. Moreover, the “absolute EC50 for viability” value in assay [2] was above 1 µM.

Consider `O=C(c1cc(Cc2n[nH]c(=O)c3ccccc23)ccc1F)N1CCN(C(=O)C2CC2)CC1` [Olaparib], for which the drug sensitivity score in assay [1] is 2.1. Moreover, the “absolute EC50 for viability” value in assay [2] was above 10 µM.

In assay [1], `C=CC(=O)Nc1cccc(Oc2nc(Nc3ccc(N4CCN(C)CC4)cc3)nc3ccsc23)c1` [Olmutinib] registered a drug sensitivity score of 0. The “absolute EC50 for viability” value in assay [2] is above 1 µM.

`COC(=O)C[C@](O)(CCCC(C)(C)O)C(=O)O[C@@H]1C(OC)=C[C@]23CCCN2CCc2cc4c(cc2[C@H]13)OCO4` [Omacetaxine]: in assay [1], the drug sensitivity score worked out at 18.6. In addition, the “absolute EC50 for viability” value in assay [2] was 0.219 µM.

As to `CC1(C)CC[C@]2(NC(=O)C(C)(F)F)CC[C@]3(C)[C@H](C(=O)C=C4[C@@]5(C)C=C(C#N)C(=O)C(C)(C)[C@@H]5CC[C@]43C)[C@@H]2C1` [Omaveloxolone], in assay [1], the drug sensitivity score came out at 4.7. For the same compound, the “absolute EC50 for viability” value in assay [2] is 3.77 µM.

Compound `COc1ncc(-c2ccc3nccc(-c4ccnnc4)c3c2)cc1NS(=O)(=O)c1ccc(F)cc1F` [Omipalisib] returned a drug sensitivity score in assay [1] of 11.6. Also, the “absolute EC50 for viability” value in assay [2] was determined as 0.0979 µM.

`CC(C)c1cc(C(=O)N2Cc3ccc(CN4CCN(C)CC4)cc3C2)c(O)cc1O` [Onalespib] displayed a drug sensitivity score in assay [1] of 12.5. Moreover, in assay [2], the “absolute EC50 for viability” value was 0.0904 µM.

For `COC[C@H](NC(=O)c1cnc(C)s1)C(=O)N[C@@H](COC)C(=O)N[C@@H](Cc1ccccc1)C(=O)[C@@]1(C)CO1` [Oprozomib], in assay [1], the drug sensitivity score worked out at 10. In assay [2], the “absolute EC50 for viability” value came out at 0.304 µM.

As for `CNC(=O)c1ccc2cc([C@@]3(O)CCn4cncc43)ccc2c1` [Orteronel], the drug sensitivity score in assay [1] stood at 0. Moreover, the “absolute EC50 for viability” value in assay [2] is above 10 µM.

In turn, `C=CC(=O)Nc1cc(Nc2nccc(-c3cn(C)c4ccccc34)n2)c(OC)cc1N(C)CCN(C)C` [Osimertinib] registered a drug sensitivity score in assay [1] of 1.5. The “absolute EC50 for viability” value in assay [2] was above 2.5 µM.

`O=C(O)C(=O)O.[NH-][C@@H]1CCCC[C@H]1[NH-].[Pt+2]` [Oxaliplatin] yielded a drug sensitivity score in assay [1] of 0.7. For the same compound, in assay [2], the “absolute EC50 for viability” value is above 100 µM.

As for `C=CCc1cccc(/C=N/NC(=O)CN2CCN(Cc3ccccc3)CC2)c1O` [PAC-1], in assay [1], the drug sensitivity score is 0.5. In assay [2], the “absolute EC50 for viability” value was above 10 µM.

`O=C(Nc1cccnc1)N1CCC(Cc2cccc(Oc3ccc(C(F)(F)F)cn3)c2)CC1` [PF-3845] registered a drug sensitivity score in assay [1] of 0. In addition, the “absolute EC50 for viability” value in assay [2] came out at 9.93 µM.

Consider `COc1ccccc1S(=O)(=O)Nc1ccc2c(c1)CN(C)C(=O)N2` [PFI-1], for which the drug sensitivity score in assay [1] came out at 1.9. For the same compound, the “absolute EC50 for viability” value in assay [2] was above 30 µM.

Turning to `CN1CCN(c2cc(C(=O)Nc3ccc4c(c3)-c3c(c(C(N)=O)nn3-c3ccc(F)cc3)CC4)c(Cl)cn2)CC1` [PHA 408], the drug sensitivity score in assay [1] was 1.3. For the same compound, in assay [2], the “absolute EC50 for viability” value was above 10 µM.

In turn, `O=C(Nc1cc(Cl)cc2c1[nH]c1cnccc12)c1cccnc1` [PS-1145] displayed a drug sensitivity score in assay [1] of 0. Moreover, the “absolute EC50 for viability” value in assay [2] is above 25 µM.

Compound `COc1cc(Br)c(Nc2nc(-c3c(C)nc4ncccn34)cs2)c(Br)c1` [PTC-209] registered a drug sensitivity score in assay [1] of 4. In assay [2], the “absolute EC50 for viability” value is above 10 µM.
